For ten compounds, TGI and GI50 results are on record in PubChem BioAssay (NCI).

Test systems include SF-295 CNS; U251 CNS; DU-145 prostate; OVCAR-3 ovarian; MOLT-4 leukemia; SNB-19 CNS; MDA-MB-435; EKVX NSCLC; SN12C renal; UO-31 renal; LOX IMVI melanoma; SK-OV-3 ovarian; COLO 205 colon; HS 578T breast; RXF 393 renal; NCI-H522 lung.
Common to all, as to test: NCI anticancer screen, dose series, 48 h

Several values for one entry are separate records, joined by “and”; a condition that tells them apart may be missing. Equal values may be shown once.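 Growth conditions: 96-well plates. Treatment: test compound, 48 hours, 5 concentrations. Analysis: linear interpolation between bracketing concentrations; unreached endpoints set to highest concentration. Here, GI50 denotes the concentration required for 50% inhibition of growth. At the TGI there is no net growth.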

Regarding `O=C(c1ccccc1)c1ccc(N2C(=O)/C(=C/c3cccc([N+](=O)[O-])c3)N=C2c2ccccc2)c(N2C(=O)/C(=C/c3cccc([N+](=O)[O-])c3)N=C2c2ccccc2)c1`, the TGI in the assay on SF-295 CNS, in the assay with U251 CNS, with DU-145 prostate, in the assay on OVCAR-3 ovarian, in the assay with MOLT-4 leukemia and in the assay on SNB-19 CNS was > 100 µM each time. Further, the TGI in the assay on MDA-MB-435 is 29.8 µM; with EKVX NSCLC, > 100 µM; in the assay with SN12C renal it was > 100 µM; in the assay on UO-31 renal, > 100 µM; in the assay on LOX IMVI melanoma it was > 100 µM; in the assay with SK-OV-3 ovarian, > 100 µM. The TGI was 11.1 µM with COLO 205 colon and > 100 µM with HS 578T breast.

As for `COc1cc(Br)cc2c1O[C@H]1C(=O)CC3CC21CCN3C` (stereo not given in full), the TGI with SF-295 CNS is > 100 µM; in the assay with OVCAR-3 ovarian, > 100 µM; in the assay with MOLT-4 leukemia, 61.6 µM; in the assay on SNB-19 CNS it was > 100 µM; in the assay with MDA-MB-435 it was > 100 µM; with EKVX NSCLC, > 100 µM. Moreover, the TGI in the assay with UO-31 renal, with LOX IMVI melanoma, with SK-OV-3 ovarian, with COLO 205 colon and with HS 578T breast was > 100 µM in each case.

Take `CCCCCCCCOP(=O)(O)OP(=O)(O)OCC1OC(n2ccc(N)nc2=O)C(O)C1O` (stereo not given): the TGI with RXF 393 renal, with SF-295 CNS, in the assay with U251 CNS, with OVCAR-3 ovarian, with MOLT-4 leukemia and in the assay on SNB-19 CNS was > 100 µM in each case. Also, the TGI in the assay on MDA-MB-435, in the assay on EKVX NSCLC, with SN12C renal, in the assay with UO-31 renal, in the assay with LOX IMVI melanoma and in the assay with SK-OV-3 ovarian was > 100 µM in each case. The TGI with COLO 205 colon and in the assay with HS 578T breast was > 100 µM in each case.

For `CC(=O)OCC(OC(C)=O)C(OC(C)=O)C(/C=N\Nc1nc2ccccc2c(=O)[nH]1)OC(C)=O` (stereo not given), the TGI with SF-295 CNS, with U251 CNS, in the assay on DU-145 prostate, in the assay on OVCAR-3 ovarian, with MOLT-4 leukemia and in the assay with SNB-19 CNS was > 100 µM each time. In addition, the TGI in the assay on MDA-MB-435, in the assay with EKVX NSCLC, in the assay on SN12C renal, in the assay on UO-31 renal, with LOX IMVI melanoma and with SK-OV-3 ovarian was > 100 µM throughout. Besides, the TGI in the assay with COLO 205 colon and in the assay on HS 578T breast was > 100 µM each time. The GI50 with HS 578T breast was 40.6 µM and 88.4 µM.

On to `COc1cc(C2SC(N)=Nc3c2c(C)nn3C(=O)Cc2ccccc2)cc(OC)c1OC` (stereo not given), for which the TGI in the assay with NCI-H522 lung, with SF-295 CNS, with DU-145 prostate, with MOLT-4 leukemia, in the assay with SNB-19 CNS and with MDA-MB-435 was > 100 µM each time. For the same compound, the TGI in the assay with EKVX NSCLC, with SN12C renal, with UO-31 renal, in the assay on LOX IMVI melanoma, in the assay with SK-OV-3 ovarian and with COLO 205 colon was > 100 µM throughout. In addition, in the assay with HS 578T breast, the TGI is > 100 µM.

On to `C=CC(C)(C)c1c(OC)oc2ccc(OC)c(C)c2c1=O`, for which the TGI in the assay on NCI-H522 lung, with SF-295 CNS, with U251 CNS, in the assay on DU-145 prostate, in the assay with OVCAR-3 ovarian and in the assay with MOLT-4 leukemia was > 100 µM throughout. Also, the TGI in the assay on SNB-19 CNS, in the assay on MDA-MB-435, in the assay on EKVX NSCLC, in the assay on SN12C renal, in the assay on UO-31 renal and in the assay with LOX IMVI melanoma was > 100 µM throughout. Further, the TGI with SK-OV-3 ovarian, with COLO 205 colon and in the assay on HS 578T breast was > 100 µM each time.

Turning to `Cn1c(=O)oc2cc(C(=O)CN3CCN(Cc4ccc5c(c4)OCO5)CC3)c(Cl)cc21`, the TGI with RXF 393 renal, in the assay on SF-295 CNS, in the assay on U251 CNS, with DU-145 prostate, with MOLT-4 leukemia and in the assay with SNB-19 CNS was > 100 µM each time. Moreover, the TGI in the assay with SN12C renal, in the assay on UO-31 renal, in the assay on LOX IMVI melanoma, with SK-OV-3 ovarian, with COLO 205 colon and in the assay with HS 578T breast was > 100 µM each time.

Regarding `CC[C@H](C)[C@H](NC(=O)[C@H](Cc1ccc(O)cc1)NCC(F)(F)F)C(=O)OC(C)(C)C`, the TGI in the assay with RXF 393 renal is 17.7 µM; in the assay on NCI-H522 lung, 20.1 µM; with SF-295 CNS, 15.2 µM; with U251 CNS, 13.7 µM; with MOLT-4 leukemia, 22 µM; with SNB-19 CNS it was 15.8 µM. Besides, the TGI with MDA-MB-435 was found to be 14.8 µM; with EKVX NSCLC, 15.1 µM; in the assay with SN12C renal, 17.3 µM; with UO-31 renal, 14.8 µM; in the assay with LOX IMVI melanoma it was 17.5 µM; with SK-OV-3 ovarian it was 17.3 µM. Also, the TGI was found to be 18.4 µM with COLO 205 colon and 31.5 µM in the assay on HS 578T breast.

In the case of `CNc1cccc(-c2cc(=O)c3cc4c(cc3[nH]2)OCO4)c1`, the TGI in the assay on RXF 393 renal is > 100 µM; in the assay with NCI-H522 lung, 0.443 µM; with SF-295 CNS, > 22.9 µM; in the assay on U251 CNS, > 49.5 µM; in the assay with DU-145 prostate it was 8.87 µM; in the assay with MOLT-4 leukemia it was > 20.9 µM. For the same compound, the TGI in the assay on SNB-19 CNS was > 100 µM; with SN12C renal it was > 42.8 µM; in the assay on UO-31 renal, > 50.8 µM; in the assay with LOX IMVI melanoma, > 72.2 µM; in the assay on SK-OV-3 ovarian, 1.07 µM; in the assay with COLO 205 colon, 0.63 µM. The same compound returned a TGI in the assay with HS 578T breast of 8.96 µM.

For the compound `CC1(C)OC[C@@H]([C@H](C=O)OCc2ccccc2)O1`, the TGI in the assay on SF-295 CNS, with U251 CNS, in the assay on DU-145 prostate, in the assay with OVCAR-3 ovarian, in the assay with MOLT-4 leukemia and with SNB-19 CNS was > 100 µM throughout. In addition, the TGI in the assay with MDA-MB-435, in the assay on EKVX NSCLC, with SN12C renal, in the assay with UO-31 renal, in the assay with LOX IMVI melanoma and with SK-OV-3 ovarian was > 100 µM throughout. Further, the TGI in the assay on COLO 205 colon and with HS 578T breast was > 100 µM throughout.
